Reference: patent US11072581B2, “N-acyl-arylsulfonamide derivatives as aminoacyl-tRNA synthetase inhibitors” (Oxford Drug Design Limited, priority 2015, dated 2021)
Structures can show the parent of a compound that is named as a salt. Where two headings read alike, the source gives them in different places.

Experiments:
Assay type in all cases: biochemical
[1] = target: T1, EcoLRS (leucyl-tRNA synthetase from Escherichia coli) (Escherichia coli, UniProt P07813); assay: aaRS aminoacylation assay (ATP consumption), EcoLRS
T1 construct: made in house; host or cells: Escherichia coli M15
Description: (§1) The compounds have been tested for antibacterial activity in vitro as aminoacyl-tRNA synthetases (aaRS) inhibitors following the following process.
(§2) Leucyl-, valyl- and isoleucyl-tRNA synthetases (LRS, VRS and IRS, respectively) from Escherichia coli (Eco) and Staphylococcus aureus (Sau).
(§3) Escherichia coli M15 cells transformed with plasmid pQE-60, or pQE-70, containing the open-reading frame sequence of one targeted aaRS were induced with 1 mM IPTG (Isopropyl β-D-1-thiogalactopyranoside) for 3 h at 37° C. Bacterial cells were harvested and lysed with 20 mM NaH2PO4 (pH 8.0), 200 mM NaCl, 10 mM imidazole and protease inhibitor cocktail (Roche). Pathogenic aaRS was purified by nickel affinity standard chromatography. Protein concentration was determined by spectrophotometry.
(§4) tRNA^Leu, tRNA^Val and tRNA^Ile from E. coli and S. aureus were transcribed in vitro for 4 h at 37° C. using T7 RNA polymerase. Transcription reaction contained 40 mM Tris-HCl (pH 8.0), 22 mM MgCl2, 1 mM spermidine, 5 mM DTT, 0.01% Triton X-100, 4 mM GTP, 4 mM ATP, 4 mM UTP, 4 mM CTP, 16 mM GMP, […] T7 RNA polymerase and 150 μg BstNI digested plasmid. Once finished, the reaction was applied on a 6% polyacrylamide-8 M urea denaturing gel to purify the transcribed tRNA and discard any impurities. Purified tRNA was quantified with Nanodrop 2000 (Thermo Scientific).
(§5) The aminoacylation reaction catalyzed by aminoacyl-tRNA synthetases (aaRS) takes place in two steps. In the first step, aaRS activates its cognate amino acid with ATP; and in the second step the activated amino acid is loaded to its corresponding tRNA. This reaction can be summarized as follows: ARS+aa+ATP=ARS-aa-AMP+PPi ARS-aa-AMP+tRNA=aa-tRNA+AMP+ARS [2] (ARS, Aminoacyl-tRNA synthetase; aa, amino acid; ARS-aa-AMP, enzyme-bound to aminoacyl-adenylate; aa-tRNA, aminoacyl-tRNA).
(§6) The activity of the pathogenic aaRSs was monitored by measuring the ATP consumption rate, since this consumption is directly proportional to the activity of the aaRS. If the tested compound, at a single point concentration of 50 μM, is inhibiting the aminoacylation reaction, there is a decrease in the ATP consumption, compared to the control reaction without compound, allowing the calculation of an inhibition ratio.
(§7) When the inhibition ratio for a given compound was above 80%, IC50 determination was performed with the same enzymatic assay (using the commercial kit Kinase RR from BioThema AB, Sweden) in the presence of serial dilutions of inhibitor. Known inhibitors of LRS, VRS or IRS were used as a positive control of the assay. The IC50 was calculated based on nonlinear regression analysis.

[2] = target: T2, SauIRS (isoleucyl-tRNA synthetase from Staphylococcus aureus) (Staphylococcus aureus, UniProt P41972); assay: aaRS aminoacylation assay (ATP consumption), SauIRS; settings: i.a. = inactive at a concentration below 50 uM
T2 construct: made in house; host or cells: Escherichia coli M15
T2 sequence (P41972 1-917): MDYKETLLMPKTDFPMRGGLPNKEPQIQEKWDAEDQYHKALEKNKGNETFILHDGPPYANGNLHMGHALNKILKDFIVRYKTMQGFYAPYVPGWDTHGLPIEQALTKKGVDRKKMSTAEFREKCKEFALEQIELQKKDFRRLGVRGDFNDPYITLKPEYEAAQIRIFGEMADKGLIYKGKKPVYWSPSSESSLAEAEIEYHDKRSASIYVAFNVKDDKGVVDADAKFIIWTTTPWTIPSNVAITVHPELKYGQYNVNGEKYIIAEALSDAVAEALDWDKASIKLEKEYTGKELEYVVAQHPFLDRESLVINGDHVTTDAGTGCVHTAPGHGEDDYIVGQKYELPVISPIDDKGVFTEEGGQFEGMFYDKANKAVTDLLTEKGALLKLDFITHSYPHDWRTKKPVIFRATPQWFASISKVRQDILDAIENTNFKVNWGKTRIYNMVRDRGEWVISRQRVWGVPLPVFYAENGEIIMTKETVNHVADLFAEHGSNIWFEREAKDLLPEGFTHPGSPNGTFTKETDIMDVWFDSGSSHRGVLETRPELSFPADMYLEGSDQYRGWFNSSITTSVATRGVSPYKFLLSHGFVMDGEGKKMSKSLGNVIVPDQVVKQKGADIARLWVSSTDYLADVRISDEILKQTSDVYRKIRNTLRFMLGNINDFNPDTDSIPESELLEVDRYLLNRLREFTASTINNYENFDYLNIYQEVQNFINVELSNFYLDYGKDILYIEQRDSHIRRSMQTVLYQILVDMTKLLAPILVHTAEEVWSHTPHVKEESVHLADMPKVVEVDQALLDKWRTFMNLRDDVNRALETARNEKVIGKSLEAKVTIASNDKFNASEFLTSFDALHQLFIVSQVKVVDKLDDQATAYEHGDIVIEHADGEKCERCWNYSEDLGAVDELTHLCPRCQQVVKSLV
Description: as §1, §2, §3, §4, §5, §6, §7

[3] = target: T3, SauVRS (valyl-tRNA synthetase from Staphylococcus aureus) (Staphylococcus aureus, UniProt Q2FXR8); assay: aaRS aminoacylation assay (ATP consumption), SauVRS; settings: i.a. = inactive at a concentration below 50 uM
T3 construct: made in house; host or cells: Escherichia coli M15
T3 sequence (Q2FXR8 1-876): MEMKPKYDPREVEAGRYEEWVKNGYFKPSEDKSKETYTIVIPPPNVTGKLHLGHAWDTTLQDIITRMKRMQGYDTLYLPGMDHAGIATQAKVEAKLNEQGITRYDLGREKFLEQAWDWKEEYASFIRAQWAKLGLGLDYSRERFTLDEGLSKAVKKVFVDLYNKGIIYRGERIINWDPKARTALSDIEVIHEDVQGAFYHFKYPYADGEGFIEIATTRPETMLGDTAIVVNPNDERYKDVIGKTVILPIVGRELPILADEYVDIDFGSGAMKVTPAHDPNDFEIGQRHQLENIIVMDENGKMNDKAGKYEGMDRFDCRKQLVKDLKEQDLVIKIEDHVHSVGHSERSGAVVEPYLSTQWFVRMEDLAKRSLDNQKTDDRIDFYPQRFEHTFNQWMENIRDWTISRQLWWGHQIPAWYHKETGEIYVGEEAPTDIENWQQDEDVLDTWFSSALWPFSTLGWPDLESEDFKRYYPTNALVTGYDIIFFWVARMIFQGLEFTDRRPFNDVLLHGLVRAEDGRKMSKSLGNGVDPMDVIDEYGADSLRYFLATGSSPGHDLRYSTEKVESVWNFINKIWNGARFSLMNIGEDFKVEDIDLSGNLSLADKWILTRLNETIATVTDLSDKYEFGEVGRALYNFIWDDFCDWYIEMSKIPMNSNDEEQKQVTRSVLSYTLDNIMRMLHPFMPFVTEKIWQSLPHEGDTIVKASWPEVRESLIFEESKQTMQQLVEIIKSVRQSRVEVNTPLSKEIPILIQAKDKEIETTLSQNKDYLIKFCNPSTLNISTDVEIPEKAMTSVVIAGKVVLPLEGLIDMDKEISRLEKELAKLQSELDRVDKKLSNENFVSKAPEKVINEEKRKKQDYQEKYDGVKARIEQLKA
Description: as §1, §2, §3, §4, §5, §6, §7

T1 sequence (P07813 whole entry): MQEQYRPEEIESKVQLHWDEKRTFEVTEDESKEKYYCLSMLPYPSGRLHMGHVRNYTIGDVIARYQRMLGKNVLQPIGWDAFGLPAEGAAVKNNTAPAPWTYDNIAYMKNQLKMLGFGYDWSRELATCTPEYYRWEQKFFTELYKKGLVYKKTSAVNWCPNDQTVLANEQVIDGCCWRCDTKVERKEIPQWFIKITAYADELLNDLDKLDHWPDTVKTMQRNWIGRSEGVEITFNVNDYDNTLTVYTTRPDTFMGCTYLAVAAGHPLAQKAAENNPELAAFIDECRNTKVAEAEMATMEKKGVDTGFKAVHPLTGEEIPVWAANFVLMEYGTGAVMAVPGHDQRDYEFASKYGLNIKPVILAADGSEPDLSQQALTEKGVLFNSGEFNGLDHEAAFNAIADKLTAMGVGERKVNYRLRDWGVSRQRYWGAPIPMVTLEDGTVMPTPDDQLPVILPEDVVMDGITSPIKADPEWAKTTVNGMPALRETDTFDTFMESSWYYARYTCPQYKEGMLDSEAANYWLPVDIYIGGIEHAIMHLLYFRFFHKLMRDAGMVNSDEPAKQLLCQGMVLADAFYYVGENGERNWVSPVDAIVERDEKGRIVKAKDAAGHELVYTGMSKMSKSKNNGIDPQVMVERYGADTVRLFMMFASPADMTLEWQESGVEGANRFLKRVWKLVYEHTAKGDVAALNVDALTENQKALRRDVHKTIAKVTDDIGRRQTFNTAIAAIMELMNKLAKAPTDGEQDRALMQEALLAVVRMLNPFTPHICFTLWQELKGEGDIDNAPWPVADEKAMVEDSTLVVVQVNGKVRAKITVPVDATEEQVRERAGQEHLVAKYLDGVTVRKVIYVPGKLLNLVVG

| SMILES | IC50 [1] [nM] | IC50 SauIRS [2] | IC50 SauVRS [3] | IC50 ([1]; i.a. = inactive at a concentration below 50 uM, read-out: IC50 EcoLRS) [nM] | IC50 EcoLRS ([1]; i.a. = inactive at a concentration below 50 uM) |
| --- | --- | --- | --- | --- | --- |
| N[C@@H](CC1CC1)C(=O)NS(=O)(=O)c1cccc(-c2ccccc2)c1 (racemic) [Compound 5.10] | 47600 | i.a | i.a |  |  |
| CC(C)C[C@H](N)C(=O)NS(=O)(=O)c1cccc(-c2ccncc2)c1 [Compound 5.42] |  | i.a. | i.a. | 13 |  |
| CC(C)C[C@H](N)C(=O)NS(=O)(=O)c1cccc(-c2cc(N(C)C)nc(N)n2)c1 [Compound 5.28] | 1600 | i.a | i.a |  |  |
| CC(C)C[C@H](N)C(=O)NS(=O)(=O)c1cccc(-c2nc(N)nc3nc[nH]c23)c1 [Compound 5.38] | 84 | i.a. | i.a. |  |  |
| CC(C)C[C@H](N)C(=O)NS(=O)(=O)c1ccc(Br)c2ccncc12 [Compound 5.22, trifluoroacetate] | 2400 | i.a | i.a |  |  |
| CC(C)C[C@H](N)C(=O)NS(=O)(=O)c1cccc(-c2cc(N)nc(N)n2)c1 [Compound 5.45] | 20 | i.a. | i.a. |  |  |
| CC(C)C[C@H](N)C(=O)NS(=O)(=O)c1c(C(C)C)cc(C(C)C)cc1C(C)C [Compound 5.12] | 32700 | i.a | i.a |  |  |
| CC(C)C[C@H](N)C(=O)NS(=O)(=O)c1ccc(Oc2ccccc2)cc1 [Compound 5.2] | 713 | i.a | i.a |  |  |
| CC(C)C[C@H](N)C(=O)NS(=O)(=O)c1cccc(-c2cccc(N)n2)c1 [Compound 5.44] | 6 | i.a. | i.a. |  |  |
| COc1ccc2cc(S(=O)(=O)NC(=O)[C@@H](N)CC(C)C)ccc2c1 [Compound 5.17] | 920 | i.a | i.a |  |  |
| CC[C@H](C)[C@H](N)C(=O)NS(=O)(=O)c1ccc2ccccc2c1 [Compound 5.15] |  | i.a | i.a |  | i.a |
| CC(C)C[C@H](N)C(=O)NS(=O)(=O)c1cccc(Cl)c1 [Compound 5.4] | 31 | i.a | i.a |  |  |
| Cc1cc(-c2cccc(S(=O)(=O)NC(=O)[C@@H](N)CC(C)C)c2)nc(N)n1 [Compound 5.35, (S)-2-amino-N-((3-(2-amino-6-methylpyrimidin-4-yl)phenyl)sulfonyl)-4-methylpentanamide] | 14 | i.a. | i.a. |  |  |
| CC(C)C[C@H](N)C(=O)NS(=O)(=O)c1ccccc1-c1ccccc1 [Compound 5.3] | 159 | i.a | i.a |  |  |
| CC[C@H](C)[C@H](N)C(=O)NS(=O)(=O)c1cccc(-c2cc(C)nc(N)n2)c1 [Compound 5.40] | 21800 | i.a. | i.a. |  |  |
| CC(C)C[C@H](N)C(=O)NS(=O)(=O)c1ccc(-c2ccccc2)cc1 [Compound 5.11] | 27600 | i.a | i.a |  |  |
| CC(C)C[C@H](N)C(=O)NS(=O)(=O)c1cccc2c1CNCC2 [Compound 5.26, (S)-2-amino-4-methyl-N-((1,2,3,4-tetrahydroisoquinolin-8-yl)sulfonyl) pentanamide trifluoroacetate] | 176 | i.a | i.a |  |  |
| CCCCc1ccc(S(=O)(=O)NC(=O)[C@@H](N)CC(C)C)cc1 [Compound 5.7] | 668 | i.a | i.a |  |  |
